Laboratory results reported in patent US20210220481A1, “BIOCOMPATIBLE TOLEROGENIC NANOPARTICLES” (INSERM (Institut National de la Santé et de la Recherche …, priority 2018, published 2021).

Experiments:
Solubility = type: physicochemical
[1] = biological target: T1, aryl hydrocarbon receptor (AhR) (Mus musculus, UniProt P30561); assay: ITE biological activity: AhRR gene expression in BMDCs by qPCR; type: cell-based; conditions: 24 h, 14 μmol·L^−1 ITE or equivalent amount as NPs
T1 sequence (P30561 10-848): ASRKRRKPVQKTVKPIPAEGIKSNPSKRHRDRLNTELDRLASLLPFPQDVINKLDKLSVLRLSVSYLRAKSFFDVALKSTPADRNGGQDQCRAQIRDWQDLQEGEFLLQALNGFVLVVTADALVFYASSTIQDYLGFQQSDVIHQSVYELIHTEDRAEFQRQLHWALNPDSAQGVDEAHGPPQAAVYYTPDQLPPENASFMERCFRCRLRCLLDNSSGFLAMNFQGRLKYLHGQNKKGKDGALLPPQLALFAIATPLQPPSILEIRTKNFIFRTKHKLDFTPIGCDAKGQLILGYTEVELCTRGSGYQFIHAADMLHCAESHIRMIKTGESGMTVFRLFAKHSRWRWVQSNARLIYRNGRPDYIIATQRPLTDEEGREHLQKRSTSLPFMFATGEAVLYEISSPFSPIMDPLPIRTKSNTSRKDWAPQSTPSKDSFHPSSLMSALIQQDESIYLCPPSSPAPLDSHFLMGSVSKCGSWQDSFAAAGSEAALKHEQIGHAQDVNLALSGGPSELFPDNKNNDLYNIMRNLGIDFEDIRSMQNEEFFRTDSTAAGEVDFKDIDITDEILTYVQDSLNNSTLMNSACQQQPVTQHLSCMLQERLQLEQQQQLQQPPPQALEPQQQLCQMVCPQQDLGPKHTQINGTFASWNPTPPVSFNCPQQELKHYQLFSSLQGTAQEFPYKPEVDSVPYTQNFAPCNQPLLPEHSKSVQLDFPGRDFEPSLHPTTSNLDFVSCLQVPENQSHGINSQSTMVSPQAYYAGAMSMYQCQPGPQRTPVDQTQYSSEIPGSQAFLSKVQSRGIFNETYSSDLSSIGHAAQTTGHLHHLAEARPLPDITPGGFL
Experimental: Mouse bone marrow dendritic cells: BMDCs were prepared from progenitor cells isolated from the femurs and tibias of female mice between 8 and 10 wk of age, as previously described in Inaba et al. (“Generation of large numbers of dendritic cells from mouse bone marrow cultures supplemented with granulocyte/macrophage colony-stimulating factor”; J Exp Med 1992, 176 (6), 1693-702). Bone marrow cells were plated on 15 cm petri dishes cell culture for a final volume of 20 mL per plate in Iscove's Modified Dulbecco's Medium (IMDM) containing 10% FCS, penicillin/streptomycin 100 μg/ml, L-Glutamine 2 mmol.L^−1 and β-mercapthoethanol 50 μmol.L^−1, and supplemented with 10 ng/ml murine GM-CSF (R&D Systems) for 8 days. Half of the medium was replaced on day 4 of culture.
ITE biological activity. On day 7 of BMDC culture, cells were incubated 24 h with 14 μmol·L^−1 ITE in 0.2% DMSO and equivalent amount of ITE as USPIO-PEG-ITE NPs in water. On day 8, total RNA was prepared by the RNAspin mini kit (GE Healthcare). cDNA was obtained using the RevertAid RT Reverse Transcription Kit (Thermo Scientific) with 1 μg of total RNA. Quantitative PCR (qPCR) was performed with the SYBR Green method using Takyon ROX qPCR SYBR MasterMix blue dTTP (Eurogentec).

[2] = Quantification of NP uptake in organs by VSM magnetometry; type: in vivo, NOD and B6 mice
Experimental: For mechanistic studies, MRI and histological studies, 3 B6 mice/time points aged 10 and 12 weeks were used as control. 3 Female NOD mice/time points were used as pre-diabetic mice between 10 and 12 weeks of age. NPs were administrated intravenously (i.v.) as a bolus of 200 μmolFe/kg diluted in 200 μL of vehicle (NaCl 0.9%/Glucose 5%).
Quantification of NP uptake in organs by VSM: Pancreas, lung, liver, spleen, kidneys and PLN were collected 1 h, 5 h, 24 h, 48 h and 72 h after intravenous injection of USPIO-PEG-ITE-P3UMPI (200 μmolFe/kg) or vehicle (NaCl 0.9%/Glucose 5%) in NOD and B6 mice. Collected organs were frozen in liquid nitrogen, lyophilized and ground to a powder using a mortar and pestle. Sample magnetism was analyzed by a VSM (VSM Quantum Design, Versalab) at room temperature. Amount of iron per organ was calculated from the NP magnetization at saturation (expressed in emu/g of iron).

Question: Which results are given for COC(=O)c1csc(C(=O)c2c[nH]c3ccccc23)n1 [ITE, 2-(1′H-indole-3′-carbonyl)-thiazole-4-carboxylic acid methyl ester]?
Answer: Solubility (Solubility): soluble only in DMSO and ethanol; AhRR expression [1]: induced; Estimation of drug dose released in pancreas: ITE ([2]; B6 mice, 1 H after iv injection of USPIO-PEG-ITE-P3UmPI, considering no drug release before pancreas targeting): 0.39 mmol; Estimation of drug dose released in pancreas: ITE ([2]; B6 mice, 5 H after iv injection): 0.99 mmol; Estimation of drug dose released in pancreas: ITE ([2]; B6 mice, 24 H after iv injection): 0 mmol; Estimation of drug dose released in pancreas: ITE ([2]; B6 mice, 48 H after iv injection): 0.15 mmol; Estimation of drug dose released in pancreas: ITE ([2]; B6 mice, 72 H after iv injection): 0.33 mmol; Estimation of drug dose released in pancreas: ITE ([2]; NOD mice, 1 H after iv injection): 1.54 mmol; Estimation of drug dose released in pancreas: ITE ([2]; NOD mice, 5 H after iv injection): 2.98 mmol; Estimation of drug dose released in pancreas: ITE ([2]; NOD mice, 24 H after iv injection): 0.37 mmol; Estimation of drug dose released in pancreas: ITE ([2]; NOD mice, 48 H after iv injection): 1.78 mmol; Estimation of drug dose released in pancreas: ITE ([2]; NOD mice, 72 H after iv injection): 0.91 mmol
